Literature values as cited in patent publication US20050037366A1, “Individual drug safety” (priority 2003, published 2005).
“Also recorded” adds a separate entry of the source. One block for each compound: values may come before it.

Assays:
[1] = men with hormone-refractory prostate cancer
[2] = in vivo
ABCC2 (MRP2, cMOAT) = biological target: T1, ABCC2 (MRP2, cMOAT) (Rattus norvegicus, UniProt Q63120); settings: rats; ABCC2-mediated mechanisms
T1 construct: host or cells: rats (in vivo, liver canalicular membrane)

[3] = rats

T1 sequence (Q63120 whole entry): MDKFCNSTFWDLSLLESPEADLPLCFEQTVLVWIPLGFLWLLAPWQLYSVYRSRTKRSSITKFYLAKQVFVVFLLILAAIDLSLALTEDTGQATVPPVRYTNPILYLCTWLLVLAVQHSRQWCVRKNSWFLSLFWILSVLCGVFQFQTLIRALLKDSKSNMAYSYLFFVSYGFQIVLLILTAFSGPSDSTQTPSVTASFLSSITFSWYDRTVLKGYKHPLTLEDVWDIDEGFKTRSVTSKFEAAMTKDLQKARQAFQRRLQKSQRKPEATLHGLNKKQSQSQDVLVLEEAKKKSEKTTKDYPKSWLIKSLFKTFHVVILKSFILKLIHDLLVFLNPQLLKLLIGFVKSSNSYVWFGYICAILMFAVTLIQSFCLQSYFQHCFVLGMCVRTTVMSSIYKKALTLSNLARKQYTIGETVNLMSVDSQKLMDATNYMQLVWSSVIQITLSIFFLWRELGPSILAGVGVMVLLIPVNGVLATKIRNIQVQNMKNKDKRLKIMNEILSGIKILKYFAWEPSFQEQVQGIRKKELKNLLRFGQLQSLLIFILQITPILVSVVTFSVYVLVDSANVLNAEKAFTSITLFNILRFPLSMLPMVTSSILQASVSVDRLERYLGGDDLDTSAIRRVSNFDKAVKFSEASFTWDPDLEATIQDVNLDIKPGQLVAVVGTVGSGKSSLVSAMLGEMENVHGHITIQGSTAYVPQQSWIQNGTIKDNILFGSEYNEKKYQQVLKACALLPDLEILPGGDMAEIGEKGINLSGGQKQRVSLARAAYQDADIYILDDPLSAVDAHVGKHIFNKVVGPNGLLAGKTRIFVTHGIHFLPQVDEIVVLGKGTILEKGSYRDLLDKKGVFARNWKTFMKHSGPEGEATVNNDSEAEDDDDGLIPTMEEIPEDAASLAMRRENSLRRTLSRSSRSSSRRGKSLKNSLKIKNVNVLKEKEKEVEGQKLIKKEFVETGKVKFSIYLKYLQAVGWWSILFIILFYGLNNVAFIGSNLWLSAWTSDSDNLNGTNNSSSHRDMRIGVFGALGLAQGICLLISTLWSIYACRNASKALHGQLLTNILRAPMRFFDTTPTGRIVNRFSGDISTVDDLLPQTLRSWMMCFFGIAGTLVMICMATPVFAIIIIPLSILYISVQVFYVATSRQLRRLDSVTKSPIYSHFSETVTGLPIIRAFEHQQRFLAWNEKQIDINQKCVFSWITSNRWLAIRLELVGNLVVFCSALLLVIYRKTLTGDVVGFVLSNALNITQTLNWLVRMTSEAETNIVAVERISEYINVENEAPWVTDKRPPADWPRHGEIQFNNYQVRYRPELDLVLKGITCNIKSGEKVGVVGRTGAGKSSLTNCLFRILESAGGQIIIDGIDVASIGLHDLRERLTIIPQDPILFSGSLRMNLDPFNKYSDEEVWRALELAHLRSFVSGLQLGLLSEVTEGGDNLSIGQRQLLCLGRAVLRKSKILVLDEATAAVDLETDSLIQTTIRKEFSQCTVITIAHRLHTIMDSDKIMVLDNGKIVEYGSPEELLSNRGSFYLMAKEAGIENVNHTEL

ADRs in phase II study [1]: headache, peripheral edema and rhinitis
SMILES: CCCCN(CCCC)C(=O)CN1C[C@H](c2ccc3c(c2)OCO3)[C@@H](C(=O)O)[C@@H]1c1ccc(OC)cc1 [Atrasentan]

canalicular bile formation (ABCC2 (MRP2, cMOAT)): alters canalicular bile formation
SMILES: COc1ccccc1Oc1c(NS(=O)(=O)c2ccc(C(C)(C)C)cc2)nc(-c2ncccn2)nc1OCCO [Bosentan]
effect on Bsep-mediated canalicular bile salt transport (Bsep (ABCB 11)): inhibition of Bsep-mediated canalicular bile salt transport
ADR: liver injury [2]: can lead to liver injury; also recorded: can induce cholestatic liver injury

cerebral blood flow [3]: decrease of cerebral blood flow
SMILES: CCCC[C@@H](NC(=O)[C@@H](Cc1cn(C(=O)OC)c2ccccc12)NC(=O)[C@H](CC(C)(C)C)NC(=O)N1[C@H](C)CCC[C@@H]1C)C(=O)O [BQ-788]
